Tested on: gastruloid model induced from human induced pluripotent stem cells DYR0100
Experiment: Thalidomide dosing of the in vitro gastruloid induction model (early embryonic teratogenesis model test)
[1] = day 7, dosed group (5 μM and 10 μM) compared with the control group
[2] = day 7, with the increase of dosed concentration (5 μM, 10 μM), significant statistical difference vs blank control and dimethyl sulfoxide control
[3] = day 7 samples, dosed group (5 μM and 10 μM) compared with the control group

Protocol: Two gradients of 5 μM and 10 μM were selected, and a blank control group and a dimethyl sulfoxide group (with thalidomide solvent) were added for testing.
When human induced pluripotent stem cells DYR0100 grew to 80-90% confluence, TrypLE Select was used to digest the cells into single cells, and the cells were resuspended in PBS to obtain a cell suspension 1; cell suspension 1 containing 9.0×10^4 cells was taken, 2 mL of the G1ER culture medium containing Y-27632 was added to resuspend the cells, and then 5 μM, 10 μM of 1% % thalidomide, dimethyl sulfoxide solution and a blank control group were added respectively, a total of 4 groups, to obtain a cell suspension 2; the cell suspension 2 was inoculated into a well of an Agreewell 400™ culture dish coated with the anti-adhesion solution (Anti-adhesion rinsing Solution) in advance. After centrifugation at 800 rpm for 2 minutes using a horizontal centrifuge, the cell amount per microwell was 50-75 cells (each well of the Agreewell 400™ culture dish has 1200 microwells, that is, the cell amount in each microwell was 9.0×10^4/1200=75 cells).
On day 2 of the culture, half of the culture medium was replaced with the G1ER culture medium, and 5 μM and 10 μM of 1% % thalidomide, dimethyl sulfoxide solution and a blank control were added respectively. Half of the culture medium was replaced every day until day 3 of the culture.
When the first stage of induction was completed, samples were taken from the four groups, and recorded with white light, then 4% paraformaldehyde was used for fixation for 30 minutes, and relevant immunofluorescence staining was performed for statistical verification.
On day 3 of the culture, 1.75 mL of the first-stage GIER culture medium was discarded, and the second-stage G2EE culture medium was added slowly along the wall, 5 μM and 10 μM of 1% thalidomide, dimethyl sulfoxide solution and a blank control were added respectively, to prevent the formed gastruloids from floating up from the microwells and then fusing.
On day 4 of the culture, 1.75 mL of the second-stage G2EE culture medium was discarded, and the third-stage aG2EE culture medium was added slowly along the wall, and 5 μM and 10 μM of 1% % thalidomide, dimethyl sulfoxide solution and a blank control were added respectively, to prevent the formed gastruloids from floating up from the microwells and then fusing.
On day 5 of the culture, 1.75 mL of the third-stage aG2EE culture medium was discarded, and the fourth-stage bG2EE culture medium was added slowly along the wall, and 5 μM and 10 μM of 1% % thalidomide, dimethyl sulfoxide solution and a blank control were added respectively, to prevent the formed gastruloids from floating up from the microwells and then fusing. After 24 hours, the culture medium was continuously replaced by 1.75 mL (the bG2EE culture medium) and cultured until day 7.
When the four-stage induction was completed, samples were taken from the four groups, and recorded the white light, then 4% paraformaldehyde was used to fix for 30 minutes, and relevant cell nucleus staining was performed for statistical verification.

O=C1CCC(N2C(=O)c3ccccc3C2=O)C(=O)N1 (stereo not drawn) [Thalidomide]
formation of amniotic cavity and yolk sac (DAPI staining) [1]: could not be formed | internal structure of the gastruloids (DAPI staining of cell nucleus) [1]: relatively disordered | cell amount of the single gastruloid [2]: decreased | volume of the single gastruloid [2]: decreased | internal cavity structure of the gastruloids (white light results) [3]: absent | volume of the gastruloids (white light results) [3]: reduced volume

From patent publication US20260085283A1, “STEM CELL-DERIVED GASTRULOID MODEL, METHOD FOR CONSTRUCTING SAME, AND USE” (Innovation Center of Suzhou Nanjing Medical University, priority 2022, published 2026)
